US12102648B2, “Orally-bioavailable nucleoside analogs” (priority 2021, dated 2024)
Like-named read-outs stand apart in the source and are kept apart here.

Assay: in vitro
Type: in vitro ADME
Conditions: human
Method in brief: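 Permeability measured in both directions across 19-day Caco-2 layers with TEER above 600 […], incubated at 37° C without shaking; donor and receiver sampled at 10 and 90 min for LC/MS/MS. Derived values: Papp (cm/s), efflux ratio, recovery.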

[1] = Caco-2 monolayer, apical to basolateral, 90-minute incubation, read-out: Papp, A-B
[2] = Caco-2 monolayer, basolateral to apical, 90-minute incubation, read-out: Papp, B-A
[3] = Caco-2 monolayer, ER>2 indicates potential efflux transporter substrate, read-out: ER (efflux ratio)

SMILES	Papp A→B at 90 min (Caco-2)	Papp B→A at 90 min (Caco-2)	efflux ratio at 90 min (Caco-2)	Papp A→B at 90 min [1]	Papp B→A at 90 min [2]	efflux ratio at 90 min [3]
CC(C)CC(=O)OC[C@H]1O[C@@](C#N)(c2ccc3c(N)ncnn23)[C@H](O)[C@@H]1OCOC(=O)C(C)(C)C [Compound 24, ((2R,3S,4R,5R)-5-(4-aminopyrrolo[2,1-f][1,2,4]triazin-7-yl)-5-cyano-4-hydroxy-3-((pivaloyloxy)methoxy)tetrahydrofuran-2-yl)methyl 3-methylbutanoate]	8.1 ×10⁻⁶ cm/s	3.6 ×10⁻⁶ cm/s	0.44			
CNc1nc(N)nc2c1ncn2[C@@H]1O[C@H](COC(C)=O)[C@@H](OC(=O)CC2CCCCC2)[C@@]1(C)F [Compound 194, (2R,3R,4R,5R)-2-(acetoxymethyl)-5-(2-amino-6-(methylamino)-9H-purin-9-yl)-4-fluoro-4-methyltetrahydrofuran-3-yl 2-cyclohexylacetate]	12 ×10⁻⁶ cm/s	2.1 ×10⁻⁶ cm/s	0.18			
CCCCC(=O)Nc1ncnn2c([C@]3(C#N)O[C@H](COC(=O)CC)[C@@H](O)[C@H]3O)ccc12 [Compound 282, ((2R,3S,4R,5R)-5-cyano-3,4-dihydroxy-5-(4-pentanamidopyrrolo[2,1-f][1,2,4]triazin-7-yl)tetrahydrofuran-2-yl)methyl propionate]				0.72 ×10⁻⁶ cm/s	4.1 ×10⁻⁶ cm/s	5.6
N#C[C@@]1(c2ccc3c(N)ncnn23)O[C@H](COC(=O)CC2(c3ccccc3)CCOCC2)[C@@H](O)[C@H]1O [Compound 274, ((2R,3S,4R,5R)-5-(4-aminopyrrolo[2,1-f][1,2,4]triazin-7-yl)-5-cyano-3,4-dihydroxytetrahydrofuran-2-yl)methyl 2-(4-phenyltetrahydro-2H-pyran-4-yl)acetate]	0.85 ×10⁻⁶ cm/s	12 ×10⁻⁶ cm/s	14			
CC(C)[C@H](N)C(=O)Nc1ncnn2c([C@]3(C#N)O[C@H](COC(=O)[C@@H](N)C(C)C)[C@@H](O)[C@H]3O)ccc12 [Compound 110, ((2R,3S,4R,5R)-5-(4-((S)-2-amino-3-methylbutanamido)pyrrolo[2,1-f][1,2,4]triazin-7-yl)-5-cyano-3,4-dihydroxytetrahydrofuran-2-yl)methyl L-valinate]	0.02 ×10⁻⁶ cm/s	0.33 ×10⁻⁶ cm/s	15			
CC(C)(C)C(=O)OCOC(=O)Nc1ncnn2c([C@]3(C#N)O[C@H](COC(=O)C(C)(C)C4CCCCC4)[C@@H](O)[C@H]3O)ccc12 [Compound 375, ((2R,3S,4R,5R)-5-cyano-3,4-dihydroxy-5-(4-((((pivaloyloxy)methoxy)carbonyl)amino)pyrrolo[2,1-f][1,2,4]triazin-7-yl)tetrahydrofuran-2-yl)methyl 2-cyclohexyl-2-methylpropanoate]	0.02 ×10⁻⁶ cm/s	0.02 ×10⁻⁶ cm/s	1.1			
CC(=O)O[C@H]1[C@@H](O)[C@](C#N)(c2ccc3c(N)ncnn23)O[C@@H]1COC(=O)Cc1ccccc1 [Compound 45, ((2R,3S,4R,5R)-3-acetoxy-5-(4-aminopyrrolo[2,1-f][1,2,4]triazin-7-yl)-5-cyano-4-hydroxytetrahydrofuran-2-yl)methyl 2-phenylacetate]				0.8 ×10⁻⁶ cm/s	3.4 ×10⁻⁶ cm/s	4.3
CCCC(=O)Nc1ncnn2c([C@]3(C#N)O[C@H](COC(=O)CC4CCCCC4)[C@@H](OCOC(=O)C(C)(C)C)[C@H]3O)ccc12 [Compound 409, (((2R,3S,4R,5R)-5-(4-butyramidopyrrolo[2,1-f][1,2,4]triazin-7-yl)-5-cyano-2-((2-cyclohexylacetoxy)methyl)-4-hydroxytetrahydrofuran-3-yl)oxy)methyl pivalate]	0.46 ×10⁻⁶ cm/s	0.1 ×10⁻⁶ cm/s	0.22			
CC(C)[C@H](N)C(=O)OC[C@H]1O[C@@](C#N)(c2ccc3c(NC(=O)c4ccccc4)ncnn23)[C@H](O)[C@@H]1O [Compound 102, ((2R,3S,4R,5R)-5-(4-benzamidopyrrolo[2,1-f][1,2,4]triazin-7-yl)-5-cyano-3,4-dihydroxytetrahydrofuran-2-yl)methyl L-valinate]	0.02 ×10⁻⁶ cm/s	6.7 ×10⁻⁶ cm/s	280			
